Source: PMC11831592, “Repurposing Linezolid in Conjunction with Histone Deacetylase Inhibitor Access in the Realm of Glioblastoma Therapies” (Journal of Medicinal Chemistry, 2025)

Legend:
GBM = tested on: GBM; design: method as in PMID 31505812; settings: GBM patients, vs 12.7 months; cited from earlier work
HDAC1 = molecular target: T1, HDAC1 (Homo sapiens, UniProt Q13547); experiment: HDAC enzyme inhibition assay, HDAC1; assay type: biochemical; settings: 10-dose, 3-fold serial dilution starting at 10 μM
T1 construct: purchased Reaction Biology Corporation, Malvern, PA (contract assay service)
Protocol: (§1) Enzyme inhibition assays were performed by the Reaction Biology Corporation, Malvern, PA (http://www.reactionbiology.com).

HDAC6 = molecular target: T2, HDAC6 (Homo sapiens, UniProt Q9UBN7); experiment: HDAC enzyme inhibition assay, HDAC6; assay type: biochemical; settings: 10-dose, 3-fold serial dilution starting at 10 μM
T2 construct: purchased Reaction Biology Corporation, Malvern, PA (contract assay service)
T2 sequence (Q9UBN7 1-1215): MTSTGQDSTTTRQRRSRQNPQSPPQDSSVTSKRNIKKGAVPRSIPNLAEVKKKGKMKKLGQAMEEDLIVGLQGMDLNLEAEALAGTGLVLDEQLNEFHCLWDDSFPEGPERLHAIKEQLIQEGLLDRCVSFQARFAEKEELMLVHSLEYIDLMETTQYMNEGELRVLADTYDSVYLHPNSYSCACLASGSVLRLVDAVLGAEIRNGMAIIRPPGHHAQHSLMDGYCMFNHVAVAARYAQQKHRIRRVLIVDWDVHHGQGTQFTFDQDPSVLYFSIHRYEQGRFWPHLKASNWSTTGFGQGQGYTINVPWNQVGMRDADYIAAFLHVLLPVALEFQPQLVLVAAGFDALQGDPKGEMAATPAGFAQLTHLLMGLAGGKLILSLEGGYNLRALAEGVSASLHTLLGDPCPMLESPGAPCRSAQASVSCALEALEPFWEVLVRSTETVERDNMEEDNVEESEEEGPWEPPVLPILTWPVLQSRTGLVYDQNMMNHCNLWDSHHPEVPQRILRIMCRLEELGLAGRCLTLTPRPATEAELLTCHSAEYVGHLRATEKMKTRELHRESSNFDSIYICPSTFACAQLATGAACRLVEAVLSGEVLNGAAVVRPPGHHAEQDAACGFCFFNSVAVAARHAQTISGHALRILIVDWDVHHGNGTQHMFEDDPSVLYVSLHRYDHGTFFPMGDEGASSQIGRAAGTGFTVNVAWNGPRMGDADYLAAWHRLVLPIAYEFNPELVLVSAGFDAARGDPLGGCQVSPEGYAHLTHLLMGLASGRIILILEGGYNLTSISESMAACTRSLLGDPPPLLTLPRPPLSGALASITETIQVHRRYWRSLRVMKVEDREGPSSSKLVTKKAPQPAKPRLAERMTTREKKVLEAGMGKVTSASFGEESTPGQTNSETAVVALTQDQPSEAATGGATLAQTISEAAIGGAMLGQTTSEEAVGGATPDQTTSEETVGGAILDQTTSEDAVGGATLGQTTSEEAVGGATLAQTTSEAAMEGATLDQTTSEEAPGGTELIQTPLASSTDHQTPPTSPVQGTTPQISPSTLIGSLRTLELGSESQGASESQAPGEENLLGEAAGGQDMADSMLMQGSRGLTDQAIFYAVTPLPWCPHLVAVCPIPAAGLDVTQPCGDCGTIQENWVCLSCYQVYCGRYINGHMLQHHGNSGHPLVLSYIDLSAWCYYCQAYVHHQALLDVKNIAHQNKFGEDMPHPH
Protocol: as §1

HDAC8 = molecular target: T3, HDAC8 (Homo sapiens, UniProt Q9BY41); experiment: HDAC enzyme inhibition assay, HDAC8; assay type: biochemical; settings: 10-dose, 3-fold serial dilution starting at 10 μM
T3 construct: purchased Reaction Biology Corporation, Malvern, PA (contract assay service)
T3 sequence (Q9BY41 1-377): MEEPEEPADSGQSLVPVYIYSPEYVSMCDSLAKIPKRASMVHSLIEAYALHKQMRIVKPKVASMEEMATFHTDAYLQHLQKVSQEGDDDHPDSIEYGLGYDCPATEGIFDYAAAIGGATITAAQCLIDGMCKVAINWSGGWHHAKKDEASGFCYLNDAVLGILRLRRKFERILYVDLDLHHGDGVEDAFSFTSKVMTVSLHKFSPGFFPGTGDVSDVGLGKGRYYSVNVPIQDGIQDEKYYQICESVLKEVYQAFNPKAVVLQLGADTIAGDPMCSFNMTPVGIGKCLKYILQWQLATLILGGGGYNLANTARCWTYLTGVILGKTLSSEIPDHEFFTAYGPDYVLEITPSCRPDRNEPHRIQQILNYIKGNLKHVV
Protocol: as §1

HDAC2 = molecular target: T4, HDAC2 (Homo sapiens, UniProt Q92769); experiment: HDAC enzyme inhibition assay, HDAC2; assay type: biochemical; settings: 10-dose, 3-fold serial dilution starting at 10 μM
T4 construct: purchased Reaction Biology Corporation, Malvern, PA (contract assay service)
Protocol: as §1

[1] = tested on: PT#3-R TMZ-resistant GBM cell line; experiment: cells; assay type: cell-based; settings: MTT; for IC50: Homo sapiens, 72 h
Protocol: The cytotoxic effects of these compounds were assessed using the MTT assay (Table 1 and Supporting Information IV).
MTT assay was employed to evaluate the cytotoxicity of the synthesized compound against resistant GBM cells. The MTT (3-(4,5-dimethylthiazol-2-yl)-2,5-diphenyltetrazolium bromide, catalog no. AM0818-0005) powder was purchased from BIONOVAS (Ontario, Canada). The MTT was prepared at 10 mg/mL stock with ultrapure water and then stored at −20 °C. […] Before the experiment, the MTT stock was 10-fold diluted with the culture medium and then incubated with cells for 30 min. After the incubation, the MTT medium was discarded and added 300 μL of dimethyl sulfoxide (DMSO, cat. no. D2650, Sigma-Aldrich, MO, USA) to dissolve the cells.

[2] = tested on: A172-R TMZ-resistant GBM cell line; experiment: MTT cytotoxicity assay, A172-R; assay type: cell-based; settings: Homo sapiens, 72 h
Protocol: (§2) We utilized linezolid as the structural foundation to confirm the cytotoxicity of linezolid-conjugated functional domains against glioblastoma (GBM). We combined it with the binding structures of anti-histone deacetylases (HDACs) (denoted as compounds 1–5 and 11–14), antitubulin (compound 6), anticyclooxygenase (COX) (compound 7), and anti-heat shock protein 90 (Hsp90) (compounds 8–10). These constructs were then administered to TMZ-resistant GBM cell lines A172R and PT#3R at concentrations ranging from 0 to 80 μM over 72 h. The cytotoxic effects of these compounds were assessed using the MTT assay (Table 1 and Supporting Information IV). […] Given the remarkable cytotoxicity of compound 1 on both A172-R and PT#3-R TMZ-resistant cells, this study subsequently focused on compound 1 for further in-depth investigation and mechanistic exploration. To validate that the cytotoxic effect of compound 1 on GBM is not attributed to linezolid alone, we separately treated the TMZ-resistant GBM cell line PT#3-R with compound 1 and linezolid. […] This confirms that the cytotoxicity of compound 1 against GBM is primarily attributable to the inhibitory structure of linezolid-conjugated HDAC (Figure 2A). Furthermore, we compared the cytotoxic effects of compound 1 on various wild-type brain tumor cell lines, including U87MG, PT#3, LN229 GBM cells, and CT-2A mouse astrocyte cell line as well as TMZ-resistant variants cell lines, including U87MG-R, PT#3-R, CT-2A-R, and T98G (MGMT-positive). […] Additionally, we further confirmed the efficacy of compound 1 in GBM treatment.
MTT assay was employed to evaluate the cytotoxicity of the synthesized compound against resistant GBM cells. The MTT (3-(4,5-dimethylthiazol-2-yl)-2,5-diphenyltetrazolium bromide, catalog no. AM0818-0005) powder was purchased from BIONOVAS (Ontario, Canada). The MTT was prepared at 10 mg/mL stock with ultrapure water and then stored at −20 °C. All cells were seeded 2.5 × 10^4 per well in the 24-well plate for 24 h, followed by treating at different concentrations of compounds for 72 h. Before the experiment, the MTT stock was 10-fold diluted with the culture medium and then incubated with cells for 30 min. After the incubation, the MTT medium was discarded and added 300 μL of dimethyl sulfoxide (DMSO, cat. no. D2650, Sigma-Aldrich, MO, USA) to dissolve the cells. Finally, 100 μL of the mixture was transferred to measure the OD 595 nm absorbance.

[3] = tested on: TMZ-resistant GBM cell lines A172R and PT#3R; experiment: MTT cytotoxicity assay, TMZ-resistant GBM lines (statement in words); assay type: cell-based; settings: 0 to 80 μM, 72 h
Protocol: as §2
MTT assay was employed to evaluate the cytotoxicity of the synthesized compound against resistant GBM cells. The MTT (3-(4,5-dimethylthiazol-2-yl)-2,5-diphenyltetrazolium bromide, catalog no. AM0818-0005) powder was purchased from BIONOVAS (Ontario, Canada). The MTT was prepared at 10 mg/mL stock with ultrapure water and then stored at −20 °C. […] Finally, 100 μL of the mixture was transferred to measure the OD 595 nm absorbance.

[4] = within 5–7 h; cited from earlier work
[5] = design: method as in PMID 36921275; settings: meningitis patients; cited from earlier work

T4 sequence (Q92769 whole entry): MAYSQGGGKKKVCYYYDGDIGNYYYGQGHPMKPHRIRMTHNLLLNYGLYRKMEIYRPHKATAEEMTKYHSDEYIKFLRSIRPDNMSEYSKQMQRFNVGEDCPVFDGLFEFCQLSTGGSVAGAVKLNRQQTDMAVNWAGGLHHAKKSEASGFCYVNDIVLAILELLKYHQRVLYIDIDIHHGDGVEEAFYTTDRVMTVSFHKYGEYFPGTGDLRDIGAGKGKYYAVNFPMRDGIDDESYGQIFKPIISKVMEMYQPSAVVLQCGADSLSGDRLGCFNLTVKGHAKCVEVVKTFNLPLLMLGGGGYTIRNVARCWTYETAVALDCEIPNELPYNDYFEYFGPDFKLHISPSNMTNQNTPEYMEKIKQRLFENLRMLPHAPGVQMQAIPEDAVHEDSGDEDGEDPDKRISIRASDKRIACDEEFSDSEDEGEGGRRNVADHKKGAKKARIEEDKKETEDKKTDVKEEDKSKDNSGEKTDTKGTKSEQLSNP
T1 sequence (Q13547 whole entry): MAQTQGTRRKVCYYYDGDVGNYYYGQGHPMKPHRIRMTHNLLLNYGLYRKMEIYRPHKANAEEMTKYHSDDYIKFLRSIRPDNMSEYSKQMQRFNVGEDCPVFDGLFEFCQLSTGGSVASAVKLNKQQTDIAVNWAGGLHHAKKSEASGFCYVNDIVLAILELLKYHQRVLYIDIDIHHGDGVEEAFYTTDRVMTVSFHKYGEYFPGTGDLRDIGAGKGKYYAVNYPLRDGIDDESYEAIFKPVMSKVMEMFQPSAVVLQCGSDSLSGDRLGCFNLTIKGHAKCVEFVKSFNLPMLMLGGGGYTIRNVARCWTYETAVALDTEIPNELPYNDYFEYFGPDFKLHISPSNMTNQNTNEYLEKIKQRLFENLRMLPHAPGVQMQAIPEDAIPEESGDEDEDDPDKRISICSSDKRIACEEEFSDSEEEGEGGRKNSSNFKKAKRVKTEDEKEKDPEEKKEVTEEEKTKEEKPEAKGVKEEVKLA

IC50 (HDAC1)	IC50 (HDAC6)	IC50 (HDAC8)	IC50 (HDAC2)	Compound	IC50 [1]	IC50 [2]	also measured
				Cn1nnc2c(C(N)=O)ncn2c1=O [TMZ, temozolomide]			overall survival (GBM): 21.7 months
3.37 µM	0.304 µM	1.11 µM	6.43 µM	O=C(CCCCCCC(=O)NC[C@H]1CN(c2ccc(N3CCOCC3)c(F)c2)C(=O)O1)NO [compound 2, (S)-N1-((3-(3-Fluoro-4-morpholinophenyl)-2-oxooxazolidin-5-yl)methyl)-N8-hydroxyoctanediamide]	164 ± 41.5 µM		
> 10 µM	0.061 µM	0.938 µM	> 10 µM	O=C(NO)c1ccc(CNC[C@H]2CN(c3ccc(N4CCOCC4)c(F)c3)C(=O)O2)cc1 [compound 3, (S)-4-((((3-(3-Fluoro-4-morpholinophenyl)-2-oxooxazolidin-5-yl)methyl)amin-o)methyl)-N-hydroxybenzamide]	114 ± 20.8 µM		
0.979 µM			2.02 µM	Nc1ccccc1NC(=O)c1ccc(CNC[C@H]2CN(c3ccc(N4CCOCC4)c(F)c3)C(=O)O2)cc1 [compound 4, (S)-N-(2-Aminophenyl)-4-((((3-(3-fluoro-4-morpholinophenyl)-2-oxooxazolidin-5-yl)methyl)amino)methyl)benzamide]	41.4 ± 5.01 µM	19 ± 2.53 µM	cytotoxicity in TMZ-resistant GBM [3]: exhibited the capacity to induce cytotoxicity
0.735 µM	0.095 µM	0.803 µM	1.66 µM	O=C(/C=C/c1cccc(S(=O)(=O)NC[C@H]2CN(c3ccc(N4CCOCC4)c(F)c3)C(=O)O2)c1)NO [compound 5, (R,E)-3-(3-(N-((3-(3-Fluoro-4-morpholinophenyl)-2-oxooxazolidin-5-yl)methyl)su-lfamoyl)phenyl)-N-hydroxyacrylamide]	124 ± 17.5 µM		
				O=C(NC[C@H]1CN(c2ccc(N3CCOCC3)c(F)c2)C(=O)O1)c1cc(Cl)ccc1O [compound 7, (S)-5-Chloro-N-((3-(3-fluoro-4-morpholinophenyl)-2-oxooxazolidin-5-yl)methyl)-2-hydroxybenzamide]	52.1 ± 6.26 µM	224 ± 80.3 µM	
				CC(C)c1cc(C(=O)NC[C@H]2CN(c3ccc(N4CCOCC4)c(F)c3)C(=O)O2)c(O)cc1O [compound 8, (S)-N-((3-(3-Fluoro-4-morpholinophenyl)-2-oxooxazolidin-5-yl)methyl)-2,4-dihydroxy-5-isopropylbenzamide]	58 ± 6.23 µM	65.2 ± 11.2 µM	
				CC(C)c1cc(C(=O)N(C)C[C@H]2CN(c3ccc(N4CCOCC4)c(F)c3)C(=O)O2)c(O)cc1O [compound 9, (S)-N-((3-(3-Fluoro-4-morpholinophenyl)-2-oxooxazolidin-5-yl)methyl)-2,4-dihydroxy-5-isopropyl-N-methylbenzamide]	15.3 ± 2.1 µM	35.6 ± 4.64 µM	cytotoxicity in TMZ-resistant GBM [3]: exhibited the capacity to induce cytotoxicity
				CCN(C[C@H]1CN(c2ccc(N3CCOCC3)c(F)c2)C(=O)O1)C(=O)c1cc(C(C)C)c(O)cc1O [compound 10, (S)-N-((3-(3-Fluoro-4-morpholinophenyl)-2-oxooxazolidin-5-yl)methyl)-2,4-dihydroxy-5-isopropyl-N-ethylbenzamide]	48.8 ± 4.77 µM	80.6 ± 9.99 µM	
				CC(=O)NC[C@H]1CN(c2ccc(N3CCOCC3)c(F)c2)C(=O)O1 [linezolid, (S)-N-((3-(3-Fluoro-4-morpholinophenyl)-2-oxooxazolidin-5-yl)methyl)acetamide]			excreted in its original form in urine [4]: 30%; cytotoxicity in resistant GBM cells ([1]; 80 to 100 μM): did not induce cytotoxicity; penetration between blood and cerebrospinal fluid [5]: more than 70%
